Structures can show the parent of a compound that is named as a salt. Where two headings read alike, the source gives them in different places.
Experiments:
[1] = system: rats fed with cholesterol; assay: in vivo antihyperlipoproteinemic test, rats fed cholesterol fodder for 7 days (Table 1); design: species or system Whistar hannover male rats; settings: rat; for change in vivo at 30 mg/kg / change in vivo at 100 mg/kg: po; for change in vivo at 30 mg/kg: 30.0 mg/kg p.o.; for change in vivo at 100 mg/kg: 100.0 mg/kg p.o.
Description: (§1) Whistar hannover male rats weighing 140-160 g were fed for 7 days with a rat fodder supplemented with 1.5% of cholesterol, 0.5% of sodium cholate and 5% of solid fat. (Schurr, P. E.; Schultz, J. R., Day, D. E.; Atherosclerosis Drug Discovery Ed.: C. E. Day, Plenum, New York 215 (1976) and Acta Pharm. Hung., 49, 182. (1979) During this time the total cholesterol level of the serum increased with 200-250% compared to the normal level, while the amount of the HDL chloesterol diminished by 45-50%. Groups consisting of six animals were formed. The compounds of the invention were administered orally starting on the fourth day of the addition of the cholesterol fodder and it was continued by the end of the experiments, by the seventh day, in one or two doses. Then after a 18 hour starving the animals were bled to death under etheric narcosis on the 8th day. The blood samples were centrifuged and the serum total cholesterol and the HDL cholesterol were determined by Backmann enzymatic test, while the triglyceride concentration of the serum was determined by Van Handel's method (J. Lab.: Clin. Med. 41, 486 (1953). The amount of the LDL+VLDL was measured by manganese precipitation turbidimetrically (Schurr, P. E., Schulz, J. R., Day, C. E.: Atherosclerosis Drug Discovery Ed.: C. E. Day, Plenum Press, New York 215 (1976). The antiaggreagtion activity was measured in vitro on human plasm being rich in thrombocytes by a Chrono-log aggregometer. The aggregation was induced by ADP, adrenaline, collagen and arachidonic acid. […]. The lipidperoxidation was induced by N-ethyl-alenicimide (Arzneimittel-Forschung 29, 981 (1979).

[2] = system: rats with the cholesterol diet; assay: in vivo test in rats with the cholesterol diet, 10 day treatments (Table 2); settings: rat, 10 day treatment, 100.0 mg/kg p.o.
Protocol: as §1, with “Whistar hannover male rats weighing 140-160 g were fed for 7 days with a rat fodder supplemented with 1.5% of cholesterol, 0.5% of sodium cholate and 5% of solid fat.” left out, “The compounds of the invention were administered orally starting on the fourth day of the addition of the cholesterol fodder and it was continued by the end of the experiments, by the seventh day, in one or two doses.” left out
The affect of compound no. 0202479 to the rats with the
cholesterol diet in 10 day treatments

[3] = system: platelet aggregation; settings: cited from earlier work
[4] = read-out: HDL cholesterol % change
[5] = read-out: serum cholesterol change
[6] = serum, read-out: triglyceride change

SMILES	change in vivo at 30 mg/kg [1, 4] [%]	change in vivo at 30 mg/kg ([1]; read-out: LDL + VLDL % change) [%]	change in vivo at 30 mg/kg [1, 5] [%]	change in vivo at 100 mg/kg [1, 4] [%]	change in vivo at 100 mg/kg ([1]; read-out: LDL + VLDL % change) [%]	change in vivo at 100 mg/kg [1, 5] [%]	change in vivo at 30 mg/kg [1, 6] [%]	change in vivo at 100 mg/kg [1, 6] [%]	decrease of the total serum cholesterol level ([1]; 100 mg/kg)	increase of HDL(-cholesterol) ([1]; 100 mg/kg) [%]	further results
Br.C=CCSc1nc2ccc(Cc3ccccc3)cc2[nH]1 [compound 0202154, 5-Benzyl-2-(2-propenylthio)-benzimidazole hydrobromide]	27	-38.1	-34.5	71.3	-57.5	-49.3	-30	-25.3	49.3%	71.3	decrease of the LDL+VLDL level ([1]; 100 mg/kg): 57.5%; decrease of the serum triglyceride ([1]; 100 mg/kg): 25.3%; overall lipid/lipoprotein activity, in words ([1]; 100 mg/kg): very effective
OCCCSc1nc2ccc(Cc3ccccc3)cc2[nH]1 [compound 0202367, 5-Benzyl-2-(3-hydroxypropylthio)-benzimidazole]	47.1	-45.2	-37.4	26	-50.7	-42.6	-19	-16.1	–	–	–
CCOC(=O)C(C)(C)Oc1ccc(Cl)cc1 [Clofibrate, 2-(4-chlorophenoxy)isobutyric ethyl ester, reference compound]	–	–	–	-20	-11.2	-24.7	–	-20	–	–	Serum cholesterol percentile change [2]: -23.0 percentile change; HDL cholesterol percentile change ([2]; ** P 0.01): -7.4 percentile change; LDL + VLDL percentile change ([2]; ** P 0.01): -37.9 percentile change; triglyceride percentile change ([2]; ** P 0.01): -24.5 percentile change; IC50 ([3]; ADP induced aggregation, read-out: medium inhibitory concentration, ADP): 100 µM; IC50 ([3]; adrenaline induced aggregation, read-out: medium inhibitory concentration, Adrenaline): 700 µM; IC50 ([3]; arachidonic acid induced aggregation, read-out: medium inhibitory concentration, Arachidonic acid): 5000 µM; IC50 ([3]; collagen induced aggregation, read-out: medium inhibitory concentration, Collagene): 1700 µM; inhibition of aggregation induced by arachidonic acid, in words ([3]; compared with compound at 250 μM): ineffective
CC(=O)CCn1c(=S)[nH]c2cc(Cc3ccccc3)ccc21 [compound 0200427, 1-(5-Benzyl-2-thioxo-1-benzimidazolyl)-3-butanone]	-17.7	-58.2	-45.5	-12.1	-54.4	-51.7	-63.5	-67.2	51.7%	–	HDL level, in words ([1]; 100 mg/kg): decreased the HDL level, though in smaller extent; decrease of the LDL+VLDL level ([1]; 100 mg/kg): 54.4%; decrease of the serum triglyceride ([1]; 100 mg/kg): 67.2%; overall lipid/lipoprotein activity, in words ([1]; 100 mg/kg): Especially great serum lipid decreasing activity
CC(=O)CSc1nc2ccc(Cc3ccccc3)cc2[nH]1 [compound 0202002, 1-((5-benzyl-2-benzimidazolyl)thio)-2-propanone]	-16.9	-0.38	-22	-16.9	-55.8	-68	27.8	-29.4	–	–	–
O=C(O)CC(Sc1nc2ccc(C(=O)c3ccccc3)cc2[nH]1)C(=O)O (stereo not drawn) [compound 0200086, S-(5-Benzoyl-2-benzimidazolyl)-2-thio-succinic acid]	-35	-22.1	-26	19.4	-24.8	-35.4	-24.9	-27.2	–	–	–
CCOC(=O)CC(=O)CSc1nc2ccc(Cc3ccccc3)cc2[nH]1 [compound 0203232, 4-[(5-Benzyl-2-benzimidazolyl)thio]acetoacetic acid ethylester hydrochloride]	6.8	-27.6	-32.1	6.8	-45.9	-48.6	29.3	-18.3	–	–	–
O=C(O)CC(Sc1nc2ccc(Cc3ccccc3)cc2[nH]1)C(=O)O (stereo not drawn) [compound 0200131, S-(5-Benzyl-2-benzimidazolyl)-2-thio-succinic acid]	10	-17.5	-17.4	57	-5.9	-16.9	-18.8	-25.4	–	–	–
C#CCSc1nc2ccc(Cc3ccccc3)cc2[nH]1 [compound 0202647, 5-Benzyl-2-(2-propinylthio)-benzimidazole]	–	–	–	–	–	–	–	–	34.5	49	decrease of the LDL+VLDL level ([1]; 100 mg/kg): 41.5; overall lipid/lipoprotein activity, in words ([1]; 100 mg/kg): especially excellent activity
CC(=O)CCn1c(=S)n(CCC(C)=O)c2cc(Cc3ccccc3)ccc21 [compound 0200058, 1,3-bis(3-Oxo-butyl)-5-benzyl-2-thioxo-benzimidazole]	30	-19.4	-14	44.9	-9.4	-10.6	1	12.8	–	45	total cholesterol of the serum, in words ([1]; 100 mg/kg): smaller decrease of the level of the total cholesterol of the serum
OCCSc1nc2ccc(Cc3ccccc3)cc2[nH]1 [compound 0202377, 5-Benzyl-2-(2-hydroxyethylthio)-benzimidazole]	-13.5	1	-36.5	61.2	-14.5	-52.4	58	116	52.4	61.2	LDL+VLDL level, in words ([1]; 100 mg/kg): decreased is smaller extent

From US4814329A, “Antihyperlipoproteinemic 5-substituted sulfur-containing benzimidazole derivatives” (Richter Gedeon Vegyeszeti Gyar R.T., priority 1985, dated 1989)
